According to patent US11453666B2, “Autotaxin inhibitory compounds” (Cancer Research Technology Limited, priority 2015, dated 2022):
Like-named read-outs stand apart in the source and are kept apart here.

Biological target: human recombinant ATX (Homo sapiens, UniProt Q13822)
Assay: Autotaxin (ATX) activity Quanta Red assay
Format: biochemical
Protocol: The reaction was stopped after 2 hours with a 20 μL addition of Quanta Red Stop solution (1:20 dilution in distilled water). The above-described mixture with DMSO alone was used as a positive control whereas that with DMSO alone without ATX was taken as a negative control.
Fluorescence was determined in a BMG Labtech Pherastar plus plate reader ([…]). Data were analysed using Excel fit software. IC50 values were determined in duplicate.

[1] = read-out: Activity (ATX activity, Quanta Red assay; IC50)
[2] = human recombinant ATX 0.8 μg/mL, 2 hours at room temperature, IC50 determined in duplicate, read-out: Activity (ATX activity, Quanta Red assay; IC50)
[3] = Table 2: additional compounds tested for ATX activity (Quanta Red Assay), read-out: Activity

Compound	IC50 [1] [nM]	other results
O=C(CCc1nc2cccnc2n1Cc1cccc(OC(F)(F)F)c1)NCc1cccc(OC(F)(F)F)c1 [Example 6, N-(3-Trifluoromethoxy-benzyl)-3-[3-(3-trifluoromethoxy-benzyl)-3H-imidazo[4,5-b]pyridin-2-yl]-propionamide]	476	
C[C@H](NC(=O)CCc1nc2ccncc2n1Cc1ccc(OC(F)(F)F)cc1)c1ccc(Cl)cc1 [Example 122, N—[(S)-1-(4-chloro-phenyl)-ethyl]-3-[3-(4-trifluoromethoxy-benzyl)-3H-imidazo[4,5-c]pyridin-2-yl]-propionamide]		IC50 [2]: 3 nM
CSc1ccc(CCNC(=O)CCc2nc3cccnc3n2Cc2ccccc2)cc1 [Example 230, 3-(3-Benzyl-3H-imidazo[4,5-b]pyridin-2-yl)-N-[2-(4-methylsulfanyl-phenyl)-ethyl]-propionamide]		IC50 [3]: 688 nM
C[C@H](NC(=O)CSc1nc2cccnc2n1Cc1ccc(OC(F)(F)F)cc1)c1ccc(F)cc1 [Example 145, N—[(S)-1-(4-fluoro-phenyl)-ethyl]-2-[3-(4-trifluoromethoxy-benzyl)-3H-imidazo[4,5-b]pyridin-2-ylsulfanyl]-acetamide]		IC50 [2]: 2 nM
CC(NC(=O)CCc1nc2cccnc2n1Cc1ccc(OC(F)(F)F)cc1)c1ccncc1 (centres unmarked) [Example 34, N-(1-Pyridin-4-yl-ethyl)-3-[3-(4-trifluoromethoxy-benzyl)-3H-imidazo[4,5-b]pyridin-2-yl]-propionamide]	6	
O=C(CCc1nc2cccnc2n1Cc1ccc(OC(F)(F)F)cc1)NCc1ccc(F)cc1 [Example 30, N-(4-Fluoro-benzyl)-3-[3-(4-trifluoromethoxy-benzyl)-3H-imidazo[4,5-b]pyridin-2-yl]-propionamide]	5	
CN(C)c1ccc(CNC(=O)CCc2nc3cccnc3n2Cc2ccc(F)cc2)cc1 [Example 58, N-(4-Dimethylamino-benzyl)-3-[3-(4-fluoro-benzyl)-3H-imidazo[4,5-b]pyridin-2-yl]-propionamide]	61	
CN(C)c1ccc(CNC(=O)CCc2nc3cccnc3n2Cc2ccc(F)c(F)c2)cc1 [Example 63, 3-[3-(3,4-Difluoro-benzyl)-3H-imidazo[4,5-b]pyridin-2-yl]-N-(4-dimethylamino-benzyl)-propionamide]	139	
C[C@H](NC(=O)C[S+]([O-])c1nc2cccnc2n1Cc1ccc(OC(F)(F)F)cc1)c1ccc(F)cc1 (single isomer, unassigned) [Example 149]		IC50 [2]: 178 nM
Cc1ccc(CNC(=O)CCc2nc3cccnc3n2Cc2ccccc2)cc1 [Example 235, 3-(3-Benzyl-3H-imidazo[4,5-b]pyridin-2-yl)-N-(4-methyl-benzyl)-propionamide]		IC50 [3]: 627 nM
C[C@@H](NC(=O)CCc1nc2cccnc2n1Cc1ccccc1)c1ccccc1 [Example 4, 3-(3-Benzyl-3H-imidazo[4,5-b]pyridin-2-yl)-N-((R)-1-phenyl-ethyl)-propionamide]		IC50 [2]: 2630 nM
O=C(NCc1nc2cccnc2n1Cc1ccc(F)c(F)c1)N[C@@H](CO)c1ccccc1 [Example 162, 1-[3-(3,4-difluoro-benzyl)-3H-imidazo[4,5-b]pyridin-2-ylmethyl]-3-((R)-2-hydroxy-1-phenyl-ethyl)-urea]	209	
C[C@H](NC(=O)CCc1nc2cccnc2n1Cc1ccc(O)cc1)c1ccc(F)cc1 [Example 155, N—[(S)-1-(4-fluoro-phenyl)-ethyl]-3-[3-(4-hydroxy-benzyl)-3H-imidazo[4,5-b]pyridin-2-yl]-propionamide]	254	
CCCCNC(=O)CCc1nc2cccnc2n1Cc1ccccc1 [Example 228, 3-(3-Benzyl-3H-imidazo[4,5-b]pyridin-2-yl)-N-butyl-propionamide]		IC50 [3]: 8810 nM
COc1ccc(Cn2c(CCC(=O)NCc3ccccc3C)nc3cccnc32)cc1 [Example 106, 3-[3-(4-Methoxy-benzyl)-3H-imidazo[4,5-b]pyridin-2-yl]-N-(2-methyl-benzyl)-propionamide]	98	
C[C@H](NC(=O)CCc1nc2cccnc2n1Cc1ccc(OCc2ccccc2)cc1)c1ccc(Cl)cc1 [Example 76, 3-[3-(4-Benzyloxy-benzyl)-3H-imidazo[4,5-b]pyridin-2-yl]-N-[(S)-1-(4-chloro-phenyl)-ethyl]-propionamide]	500	
C[C@H](NC(=O)CCc1nc2cccnc2n1Cc1ccc(F)c(F)c1)c1ccc(N2CCNC(C(F)(F)F)C2)cc1 (stereo partly drawn) [Example 179, 3-[3-(3,4-Difluoro-benzyl)-3H-imidazo[4,5-b]pyridin-2-yl]-N-{(S)-1-[4-(3-trifluoromethyl-piperazin-1-yl)-phenyl]-ethyl}-propionamide]	5	
CS(=O)(=O)N1CCC(CNC(=O)CCc2nc3cccnc3n2Cc2ccc(OC(F)(F)F)cc2)CC1 [Example 214, N-(1-methanesulfonyl-piperidin-4-ylmethyl)-3-[3-(4-trifluoromethoxy-benzyl)-3H-imidazo[4,5-b]pyridin-2-yl]-propionamide]	30	
C[C@H](NC(=O)CCc1nc2cccnc2n1Cc1ccc(F)cc1)c1ccc(N2CCC(CO)CC2)cc1 [Example 181, 3-[3-(4-Fluoro-benzyl)-3H-imidazo[4,5-b]pyridin-2-yl]-N-{(S)-1-[4-(4-hydroxymethyl-piperidin-1-yl)-phenyl]-ethyl}-propionamide]	7	
COc1ccc(Cn2c(CCC(=O)N[C@@H](C)c3ccc(Cl)cc3)nc3cccnc32)cc1 [Example 84, N-[(S)-1-(4-Chloro-phenyl)-ethyl]-3-[3-(4-methoxy-benzyl)-3H-imidazo[4,5-b]pyridin-2-yl]-propionamide]		IC50 [2]: 3 nM
C[C@H](NC(=O)NCc1nc2cccnc2n1Cc1ccc(F)c(F)c1)c1ccc(N2CCOCC2)cc1 [Example 163, 1-[3-(3,4-Difluoro-benzyl)-3H-imidazo[4,5-b]pyridin-2-ylmethyl]-3-[(S)-1-(4-morpholin-4-yl-phenyl)-ethyl]-urea]	309	
Cc1ccc2nc(CCC(=O)N[C@@H](C)c3ccc(F)cc3)n(Cc3ccc(F)cc3)c2n1 [Example 121, 3-[3-(4-fluoro-benzyl)-5-methyl-3H-imidazo[4,5-b]pyridin-2-yl]-N—[(S)-1-(4-fluoro-phenyl)-ethyl]-propionamide]	269	
C[C@H](NC(=O)CCc1nc2ccncc2n1Cc1ccc(F)cc1)c1ccc(F)cc1 [Example 132, 3-[3-(4-Fluoro-benzyl)-3H-imidazo[4,5-c]pyridin-2-yl]-N-[(S)-1-(4-fluoro-phenyl)-ethyl]-propionamide]		IC50 [2]: 52 nM
C[C@H](NC(=O)CCc1nc2cc(Br)cnc2n1Cc1ccc(F)cc1)c1ccc(Cl)cc1 [Example 70, 3-[6-Bromo-3-(4-fluoro-benzyl)-3H-imidazo[4,5-b]pyridin-2-yl]-N-[(S)-1-(4-chloro-propionimide)]]	242	
Cc1cnc2c(c1)nc(CCC(=O)N[C@@H](C)c1ccc(N3CCCNCC3)cc1)n2Cc1ccc(OC(F)(F)F)cc1 [Example 191, N-[(S)-1-(4-[1,4]Diazepan-1-yl-phenyl)-ethyl]-3-[6-methyl-3-(4-trifluoromethoxy-benzyl)-3H-imidazo[4,5-b]pyridin-2-yl]-propionamide]	25	
O=C(CCc1nc2ccncc2n1Cc1ccc(OC(F)(F)F)cc1)NCc1ccc(F)cc1 [Example 133, N-(4-Fluoro-benzyl)-3-[3-(4-trifluoromethoxy-benzyl)-3H-imidazo[4,5-c]pyridin-2-yl]-propionamide]	52	
